Measured values from patent US11618744B2, “Benzoimidazoles as prolyl hydroxylase inhibitors” (Janssen Pharmaceutica NV, priority 2008, dated 2023).

These compounds were tested on Hep-3B cells (assay: Cellular assay: erythropoietin (EPO) secretion in Hep-3B cells). Conditions: 24 h incubation, compound at 100 μM, percentage of EPO secretion of control compound 7-[(4-Chloro-phenyl)-(5-methyl-isoxazol-3-ylamino)-methyl]-quinolin-8-ol.
Assay type: cell-based, human

Row | Structure (SMILES) | Cellular % EPO Stimulation
1 | O=C(O)c1cnn(-c2nc3ccccc3[nH]2)c1 [Example 1, 1-(1H-Benzoimidazol-2-yl)-1H-pyrazole-4-carboxylic acid] | 7.1%
2 | Cc1cc2nc(-n3cc(C(=O)O)cn3)[nH]c2cc1C [Example 5, 1-(5,6-Dimethyl-1H-benzoimidazol-2-yl)-1H-pyrazole-4-carboxylic acid] | 2.1%
3 | O=C(O)c1cnn(-c2nc3cc(-c4cccc(OCc5ccccc5Cl)c4)ccc3[nH]2)c1 [Example 13, 1-{5-[3-(2-Chloro-benzyloxy)-phenyl]-1H-benzoimidazol-2-yl}-1H-pyrazole-4-carboxylic acid] | 18%
4 | O=C(O)c1cnn(-c2nc3cc(-c4cccc(C(F)(F)F)c4)ccc3[nH]2)c1 [Example 17, 1-[5-(3-Trifluoromethyl-phenyl)-1H-benzoimidazol-2-yl]-1H-pyrazole-4-carboxylic acid] | 5.8%
5 | Cc1nn(-c2nc3cc(Cl)c(Cl)cc3[nH]2)c(C)c1C(=O)O [Example 22, 1-(5,6-Dichloro-1H-benzoimidazol-2-yl)-3,5-dimethyl-1H-pyrazole-4-carboxylic acid] | 0.47%
